These results are taken from publication PMC10001324, “Differential Effects of Nonsteroidal Anti-Inflammatory Drugs in an In Vitro Model of Human Leaky Gut” (Cells, 2023).

≈ marks a conversion by molar mass, not a printed value. Where two headings read alike, the source gives them in different places.

For one data set, the system named is TNF-α. The settings on record: Caco-2, EtOH exposure 6% for 24 h; control 10.8 ± 1.3 pg/mL.
In the next data set the test system is IL-8. The settings on record: Caco-2, EtOH exposure 6% for 24 h; control 82.4 ± 0.44 pg/mL.
For a further data set, the system named is COX-1. As to conditions: human blood, cited from earlier work.
The next data set in a line: physchem. The settings on record: water. The method, then:
(§1) The major physicochemical properties of the drugs were determined using the SiriusT3 apparatus (Sirius Analytical Instruments Ltd., East Sussex, UK) equipped with an Ag/AgCl double junction reference pH electrode, a Sirius D-PAS spectrometer, and a turbidity sensing device. The pH electrode was calibrated titrimetrically in the pH range 1.8–12.2 as previously described. The pKas were defined by the potentiometric method by pH-metric titration. The powder (around 0.5 mg) was diluted in 1.5 mL of ISA water and the titration was analyzed in triplicate in the pH range 2.0–12.0.

Data set [1] in a line: Log P / LogD7.4 by pH-metric titration in octanol (SiriusT3). The class given is physicochemical. The settings on record: for logD: pH 7.4; for logP: SiriusT3, octanol. The method, then:
as §1

The test system of data set [2] is Caco-2 cells. Description: Transepithelial electrical resistance (TEER), EtOH-stressed Caco-2. Type of data set: cell-based, human. As to conditions: Caco-2 20 DIV, 6% EtOH 24 h then 0.25, 0.5, 1 mM for 72 h.
The subject of the next data set is IKBα. Description: IKBα protein levels by western blotting, Caco-2. The class given is cell-based, human. The settings on record: Caco-2, 6% EtOH 24 h then 1 mM for 72 h.
For data set [3], the system named is Caco-2 cells. Put plainly: Morphological analysis of the intestinal barrier (ZO-1 immunofluorescence, phalloidin staining). Type of data set: cell-based, human. The settings on record: Caco-2, 6% EtOH 24 h then 1 mM for 72 h. The method, then:
Cells were then fixed with 3.7% paraformaldehyde (Sigma, USA) in PBS for 15 min at room temperature and then permeabilized with 0.1% Triton X-100 (Sigma, USA) in PBS for 5 min. After further washes with PBS, phalloidin 1000X (ab176753, Abcam, UK) was diluted to 1X in 1% BSA in PBS, and the cells were incubated for 90 min at room temperature (according to the manufacturer’s instructions). Finally, coverslips were mounted on microscope slides with Vectashield Mounting Medium H2000 with DAPI and cells were observed using a Leica SP5 confocal microscope. For each condition, n = 3, 5 fields/slide were analyzed. A representative picture is shown.
Cells were then treated with 6% EtOH (24 h) and then with 1 mM NSAIDs (72 h). Cells were fixed in 3.7% paraformaldehyde in PBS for 15 min at room temperature, rinsed with PBS, and permeabilized with 0.1% Triton X-100 in PBS for 5 min. After further washes with PBS, cells were incubated for 30 min with BSA 4% in PBS and then incubated overnight at 4 °C with the primary antibody zonulin-1 (ZO-1) (33-910, Thermo Scientific, MA, USA rabbit anti-human, dilution 1:100). […] Finally, coverslips were mounted on microscope slides with Vectashield Mounting Medium with DAPI and cells were observed using a Leica SP5 confocal microscope.

The test system of another data set is IKBα/4-HNE adducts. Description: Immunoprecipitation for IKBα, IKBα/4-HNE adducts, Caco-2. Type of data set: cell-based, human. As to conditions: Caco-2, EtOH then 1 mM for 72 h. The procedure: The columns were incubated overnight at 4 °C. […] Values were given as RU.
In another data set the test system is COX-2. The settings on record: human blood, cited from earlier work.
Data set [4] concerns Caco-2 cells. Description: DCFDA cellular ROS assay, Caco-2. Type of data set: cell-based, human. The settings on record: compared to EtOH challenge alone; Caco-2, 1 mM for 72 h.
The subject of data set [5] is Glutathione-S-transferase (GST). As to conditions: effect on EtOH-induced decrease; Caco-2, 1 mM for 72 h.
The test system of a further data set is 4-HNE. Put plainly: 4-HNE levels by WB, Caco-2. Type of data set: cell-based, human. The settings on record: Caco-2, 6% EtOH 24 h then 1 mM for 72 h.
In data set [6] the test system is Caco-2 cells. The settings on record: effect on EtOH-induced increase; Caco-2, 1 mM for 72 h. The procedure:
OxyBlot protein oxidation detection kits (S7150, Millipore Company, Burlington, MA, USA) were used according to the manufacturer’s instructions. Briefly, cells were plated (seeding density 3 × 10^5 cells/cm^2) in a complete medium in a T75 flask and cultured for 20 days post-confluence. After 20 days, cells were exposed for 24 h to EtOH (6%) and for 72 h to NSAIDs (1 mM). OxyBlot assay was then performed as previously reported.

The subject of a further data set is NFkB. Description: NFkB translocation in LPS-activated RAW 264.7 macrophages. Type of data set: cell-based, murine. The settings on record: 1 mM for 24 h. The method, then: The murine macrophage cell line RAW 264.7 (ATCC TIB-71) was purchased from ATCC, and cells were cultured as indicated by the manufacturer. For the experiment, cells were seeded 10,000/cm^2 for 24 h, starved for 4 h (w/o serum), and activated with lipopolysaccharides (LPS 10 ng/mL for 24 h; Sigma Aldrich, St. Louis, MO, USA). […] RAW 264.7 cells were seeded at 10,000 cells/cm^2 and activated with LPS. […] For both Caco-2 and RAW 264.7 cells, the procedure of extraction of different components was performed as previously reported. The protein fraction extracts were separated on a 10% SDS–polyacrylamide gel and electroblotted onto PVDF. Nonspecific binding sites were blocked by EBB for 5 min. Membranes were then incubated overnight at 4 °C with anti-NFκB and anti-PPARγ. As secondary antibodies, peroxidase-conjugated anti-rabbit, and anti-mouse were used. Bands were detected using Alliance 4.7 UVITEC (Cambridge, UK) and analyzed by ImageJ software. The relative densities of the immunoreactive bands were normalized to anti-Actin or anti-laminin using ImageJ software. Values were given as RU.

A further data set concerns COX. The settings on record: cited from earlier work.
Data set [7] can be described thus: Caco-2 permeability assay (Papp, Ap-Bl). The class given is in vitro ADME. The settings on record: human, Caco-2, apical to basolateral. The procedure:
Papp is the apparent permeability of a compound across a membrane. For drug transport studies, cells were seeded at a density of 3 × 10^5 cells/cm^2 on permeable support with 0.4 µm Transparent PET Membrane in complete medium, cultured and treated as described above.
Drug transport across Caco-2 monolayers was studied in the Ap–Bl direction, fresh drug and provided to the apical side (donor compartment), and the fresh vehicle was provided to the basolateral side (receiver compartment). For each solution, aliquots of 500 μL were collected immediately after the addition of compounds to the cells (the “time zero”), and after appropriate dilution, an HPLC analysis was performed. At the end of the experiment, after 120 min of incubation, 500 μL of the donor chamber solution was diluted and an HPLC analysis was performed.
A general note: Passage across Caco-2 layers is used to estimate intestinal permeability.

On to `CCO` [EtOH, Ethanol], for which the “Secreted TNF-α levels” value in the data set with TNF-α stood at 20.9 ± 0.7 pg/mL. Moreover, the “Secreted IL-8 levels” value in the data set with IL-8 worked out at 283.9 ± 4.1 pg/mL.

On to `CC(C)Cc1ccc(C(C)C(=O)O)cc1` (stereo not drawn) [Ibuprofen], for which the values for the IC50 in the data set on COX-1 (ref 23) and with COX-1 (ref 24) were […] and […], respectively. In addition, in the data set “physchem”, the solubility (usually how much of the substance goes into solution per volume) amounted to 49 µg/mL (≈ 238 µM). Also, in [1] (octanol/ISA water), the logD (usually the decadic logarithm of the distribution of all forms, ionised or not, between an organic phase and buffer at a given pH) turned out to be 0.96. For the same molecule, the logP (usually a log measure of how a compound divides between an organic and an aqueous phase) in [1] (octanol/ISA water) is 3.91 ± 0.01. Also, the TEER entry in the data set with Caco-2 cells [2] is “partial but significant protective activity”.

Take `CC(C(=O)O)c1cccc(C(=O)c2ccccc2)c1` (stereo not drawn) [Ketoprofen, ketoprofen]: the IC50 (in general, the concentration that gives 50% inhibition) in the data set with COX-1 (ref 23) is 0.047 µM; with COX-1 (ref 24), 0.11 µM; with COX-2 (ref 23) it was 2.9 µM; with COX-2 (ref 24) it was 0.88 µM. Besides, the IKBα protein levels result with IKBα is “counteracted the EtOH-induced IKBα decrease”. In addition, the “intestinal barrier integrity (ZO-1 and phalloidin staining)” value with Caco-2 cells [3] is “did not show the ability to protect Caco-2 cells”. The IKBα/4-HNE adduct formation result in the data set with IKBα/4-HNE adducts was “reduced the formation of the adducts”. For the same molecule, the “DCFDA fluorescence intensity (cellular ROS)” value in the data set with Caco-2 cells [4] was “more substantial”. For the same molecule, the logP in [1] (octanol/ISA water) was determined as 3.05 ± 0.01. Besides, the logD in data set [1] amounted to 0.12.

Consider `NCCCC[C@H](N)C(=O)O` [Lys, L-lysine], for which the “intestinal barrier integrity (ZO-1 and phalloidin staining)” value in the data set on Caco-2 cells [3] was “did not show the ability to protect Caco-2 cells”. For the same molecule, the GST activity entry in [5] is reported as “not observed”. Also, the 4-HNE levels entry in the data set on 4-HNE is on record as “not”. The IKBα/4-HNE adduct formation result in the data set with IKBα/4-HNE adducts is listed as “not”. Also, in the data set on Caco-2 cells [6], the “levels of oxidized proteins (OxyBlot)” value is listed as “did not exhibit direct antioxidant effects”.

As for `C[C@@H](C(=O)O)c1cccc(C(=O)c2ccccc2)c1` [R enantiomer, R-Ketoprofen], the NFkB translocation result with NFkB is “inhibited NFkB translocation to the same extent as KLS”. For the same molecule, the “potency as a COX inhibitor” value in the data set with COX was “several logs less potent than the S enantiomer”. In addition, the apparent permeability coefficient (Papp) (commonly a coefficient for how fast a substance crosses the barrier) at 120 min turned out to be 0.579 ± 0.052 ×10⁻⁶ cm/s in data set [7] (Caco-2, K) and 1.19 ± 0.044 ×10⁻⁶ cm/s in data set [7] (Caco-2, KLS).

`C[C@H](C(=O)O)c1cccc(C(=O)c2ccccc2)c1` [S enantiomer, (S)-ketoprofen]: the NFkB translocation entry with NFkB is “not”. For the same molecule, the Papp at 120 min was 0.576 ± 0.031 ×10⁻⁶ cm/s in data set [7] (Caco-2, K) and 1.19 ± 0.026 ×10⁻⁶ cm/s in data set [7] (Caco-2, KLS).
